Our source for the IC50 values is BindingDB's records for patent US20250352549 (Avelos Therapeutics, 2025).

SMILES strings stand for the structures. Bounds are passed on as bounds.

The target in this test is T1, Serine/threonine-protein kinase greatwall (Human, UniProt Q96GX5).
T1 sequence (Q96GX5 whole entry): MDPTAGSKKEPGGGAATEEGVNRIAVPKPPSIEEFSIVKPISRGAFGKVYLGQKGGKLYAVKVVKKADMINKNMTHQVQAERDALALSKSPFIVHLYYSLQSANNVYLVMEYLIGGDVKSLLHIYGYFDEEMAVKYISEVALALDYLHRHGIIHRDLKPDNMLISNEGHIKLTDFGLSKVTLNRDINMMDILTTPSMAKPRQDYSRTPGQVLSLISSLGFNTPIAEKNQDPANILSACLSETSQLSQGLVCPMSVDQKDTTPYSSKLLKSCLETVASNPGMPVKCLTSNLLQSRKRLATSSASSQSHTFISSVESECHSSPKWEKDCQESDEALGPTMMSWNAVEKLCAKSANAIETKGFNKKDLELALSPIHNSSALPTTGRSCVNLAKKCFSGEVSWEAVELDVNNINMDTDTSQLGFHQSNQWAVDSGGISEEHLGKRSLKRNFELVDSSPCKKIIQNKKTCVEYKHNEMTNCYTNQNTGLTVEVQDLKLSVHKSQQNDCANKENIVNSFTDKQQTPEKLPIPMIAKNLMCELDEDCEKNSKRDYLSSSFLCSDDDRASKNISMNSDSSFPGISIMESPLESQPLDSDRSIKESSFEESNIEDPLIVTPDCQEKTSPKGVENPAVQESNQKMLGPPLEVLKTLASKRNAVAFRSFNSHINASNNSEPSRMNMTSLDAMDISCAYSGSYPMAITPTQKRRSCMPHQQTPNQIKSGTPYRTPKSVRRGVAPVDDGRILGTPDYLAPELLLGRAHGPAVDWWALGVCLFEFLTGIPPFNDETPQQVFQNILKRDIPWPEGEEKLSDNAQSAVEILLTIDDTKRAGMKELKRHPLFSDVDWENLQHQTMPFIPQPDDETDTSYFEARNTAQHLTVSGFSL
The experiment in a line: MASTL Activity Assay. As for the experimental part: Wild-type human active MASTL (154 pM) was incubated in assay buffer (50 mM HEPES, 100 mM NaCl, 0.1 mM EGTA, 10 mM MgCl2, 0.01% Tween-20, 0.5 mM TCEP, pH 7.5) with biotin tagged 40-mer ENSA peptide (10 nM), test compound and ATP (18 μM) for 60 minutes at room temperature. Test compounds were assayed using a 12-point dose range consisting of a 0, DMSO control and 10 sequential doses consisting from 0.0005, 0.002, 0.005, 0.014, 0.04, 0.12, 0.37, 1.11, 3.33 and 10 μM. The DMSO concentration was the same (1%) in all samples. An equal volume of detection buffer (assay buffer+267.5 pM Ab-K, 1.25 nM SA-D2, 20 mM EDTA and 400 mM KF) was added to stop the reaction to make a final volume of 20 μl, RT for 60 mins. Activity was measured using a plate reader (PerkinElmer EnSight) by the FRET signal generated between SA-D2 (streptavidin-D2) and Ab-K (anti-phospho-Serine 67 ENSA antibody (rabbit polyclonal, using standard techniques by a commercial supplier) conjugated to Cryptate). HTRF reagents (CisBio) were prepared as per the manufacturer recommendations. The 40-mer biotin-tagged ENSA peptide (synthesised by Bionics) used was based around Serine 67 on ENSA ([…]).
`Cc1ncc2ncc(-c3nc(N)nc(NC(C)(C)c4ccn(C(F)F)n4)n3)cn12` [US20250352549, Example 1]: the IC50 is under 500 nM.

Compound `Cc1ncc2ccc(-c3nc(N)nc(NC(c4ccccc4)c4c[nH]c(C(F)(F)F)n4)n3)cn12` (stereo not drawn) [US20250352549, Example 2] returned a concentration for half-maximal inhibition (IC50) of over 1000 nM. `COC(=O)C(Cc1cccc(Cl)c1Cl)Nc1cc(-c2ccc3cnc(C)n3c2)nc(N)n1` (stereo not drawn) [US20250352549, Example 3] gave a half-inhibitory concentration (IC50) of under 500 nM. The same measure for `COC(=O)C(Cc1cccc(Cl)c1Cl)Nc1nc(N)nc(-c2ccc3cnc(C)n3c2)n1` (stereo not drawn) [US20250352549, Example 4]: under 500 nM. Consider `[2H]C([2H])([2H])Nc1nc(NC(CC)c2c[nH]c(C(F)(F)F)n2)nc(-c2ccc3cnc(C)n3c2)n1` (stereo not drawn) [US20250352549, Example 5], for which the IC50 is under 500 nM. `CCC(Nc1nc(N)nc(-c2ccc3[nH]ncc3c2)n1)c1c[nH]c(C(F)(F)F)n1` (stereo not drawn) [US20250352549, Example 8] returned an IC50 of under 500 nM. `[2H]C([2H])([2H])n1ncc2ccc(-c3nc(N)nc(NC(C)(C)c4ccn(C(F)F)n4)n3)cc21` [US20250352549, Example 9] showed an IC50 of under 500 nM. In the case of `CC(C)(Nc1nc(N)nc(-c2ccc3cnc(N)n3c2)n1)c1ccn(C(F)F)n1` [US20250352549, Example 10], the IC50 was under 500 nM. In the case of `CC(C)(Nc1nc(N)nc(-c2ccc3cnc(N)n3c2)n1)c1c[nH]c(C(F)(F)F)n1` [US20250352549, Example 11], the IC50 was under 500 nM. Consider `Cc1ncc2ccc(-c3nc(C#N)nc(NC(C)(C)c4ccn(C(F)F)n4)n3)cn12` [US20250352549, Example 12], for which the IC50 is over 1000 nM.

`Cc1ncc2ncc(-c3nc(N)nc(NC(C)(C)c4ccn(C(F)F)n4)n3)cn12` [US20250352549, Example 13] showed an IC50 of over 1000 nM. With `Cc1ncc2ccc(-c3nc(C#N)nc(NC(Cc4cccc(Cl)c4Cl)C(=O)O)n3)cn12` (stereo not drawn) [US20250352549, Example 15], the IC50 is over 1000 nM. The compound `Cc1ncc2ccc(-c3cc(NCC(N)c4cccc(Cl)c4Cl)nc(N)n3)cn12` (stereo not drawn) [US20250352549, Example 16] showed an IC50 of under 500 nM. On to `CNC(CNc1cc(-c2ccc3cnc(C)n3c2)nc(N)n1)c1cccc(Cl)c1Cl` (stereo not drawn) [US20250352549, Example 17], for which the IC50 is under 500 nM. The same measure for `CC(=O)NC(CNc1cc(-c2ccc3cnc(C)n3c2)nc(N)n1)c1cccc(Cl)c1Cl` (stereo not drawn) [US20250352549, Example 18]: under 500 nM; for `CC(=O)N(C)C(CNc1cc(-c2ccc3cnc(C)n3c2)nc(N)n1)c1cccc(Cl)c1Cl` (stereo not drawn) [US20250352549, Example 19]: under 500 nM; for `CONC(=O)C(Cc1cccc(Cl)c1Cl)Nc1nc(N)nc(-c2ccc3cnc(C)n3c2)n1` (stereo not drawn) [US20250352549, Example 20]: under 500 nM.

`Cc1ncc2ccc(-c3nc(N)nc(NC(Cc4cccc(Cl)c4Cl)c4nnn[nH]4)n3)cn12` (stereo not drawn) [US20250352549, Example 21] had an IC50 of under 500 nM. To `Cc1ncc2ccc(-c3nc(N)nc(NC(Cc4cccc(Cl)c4Cl)c4nc[nH]n4)n3)cn12` (stereo not drawn) [US20250352549, Example 22] belongs under 500 nM; to `Cc1ncc2ccc(-c3nc(N)nc(NC(Cc4cccc(Cl)c4Cl)c4ncno4)n3)cn12` (stereo not drawn) [US20250352549, Example 23], over 1000 nM. To `CC(C)C(Nc1nc(N)nc(-c2ccc3[nH]ncc3c2)n1)c1c[nH]c(C(F)(F)F)n1` (stereo not drawn) [US20250352549, Example 24] belongs under 500 nM; to `CNc1nc(NC(C)(C)c2ccn(C(F)F)n2)nc(-c2ccc3[nH]ncc3c2)n1` [US20250352549, Example 26], under 500 nM. To `CNc1nc(NC(c2ccn(C(F)F)n2)C(C)C)nc(-c2ccc3[nH]ncc3c2)n1` (stereo not drawn) [US20250352549, Example 27] belongs under 500 nM.

As to `[2H]C([2H])([2H])n1ncc2ccc(-c3nc(N)nc(NC(c4c[nH]c(C(F)(F)F)n4)C(C)C)n3)cc21` (stereo not drawn) [US20250352549, Example 28], the IC50 was under 500 nM. `[2H]C([2H])([2H])Nc1nc(NC(C)(C)c2ccn(C(F)F)n2)nc(-c2ccc3cnc(N)n3c2)n1` [US20250352549, Example 30] displayed an IC50 of under 500 nM.

As to `[2H]C([2H])([2H])Nc1nc(NC(c2c[nH]c(C(F)(F)F)n2)C(C)C)nc(-c2ccc3cnn(C)c3c2)n1` (stereo not drawn) [US20250352549, Example 31], the IC50 is under 500 nM. To `Nc1nc(NC(c2c[nH]c(C(F)(F)F)n2)C2CC2)nc(-c2ccc3[nH]ncc3c2)n1` (stereo not drawn) [US20250352549, Example 32] belongs under 500 nM. `Nc1nc(NC(c2ccn(C(F)F)n2)C2CC2)nc(-c2ccc3[nH]ncc3c2)n1` (stereo not drawn) [US20250352549, Example 33] yielded a half-inhibitory concentration (IC50) of under 500 nM. `CC(C)C(Nc1nc(N)nc(-c2ccc3c(cnn3C)c2)n1)c1c[nH]c(C(F)(F)F)n1` (stereo not drawn) [US20250352549, Example 34] showed an IC50 of under 500 nM. The same measure for `Cc1n[nH]c2ccc(-c3nc(N)nc(NC(c4c[nH]c(C(F)(F)F)n4)C(C)C)n3)cc12` (stereo not drawn) [US20250352549, Example 35]: under 500 nM; for `[2H]C([2H])([2H])n1ncc2ccc(-c3nc(N)nc(NC(C)(C)Cc4cccc(F)n4)n3)cc21` [US20250352549, Example 36]: under 500 nM. The same measure for `CNc1ncc2ccc(-c3nc(N)nc(NC(C)(C)c4ccn(C(F)F)n4)n3)cn12` [US20250352549, Example 37]: under 500 nM; for `CC(C)(Nc1nc(N)nc(-c2ccc3cnc(O)n3c2)n1)c1ccn(C(F)F)n1` [US20250352549, Example 38]: over 1000 nM. For `[2H]C([2H])([2H])n1ncc2ccc(-c3cc(NC(C)(C)Cn4ccc(C(F)(F)F)n4)nc(N)n3)cc21` [US20250352549, Example 40], the IC50 is under 500 nM. Take `CC(C)(Cc1cccc(Cl)c1Cl)Nc1nc(N)nc(-c2ccc3cnc(N)n3c2)n1` [US20250352549, Example 41]: the half-maximal inhibitory concentration (IC50) was under 500 nM. Compound `Nc1nc(NCCc2ccc(Cl)c(F)c2F)nc(-c2ccc3cnc(N)n3c2)n1` [US20250352549, Example 42] showed a half-inhibitory concentration (IC50) of under 500 nM. As for `CC(C)CC(Nc1nc(N)nc(-c2ccc3[nH]ncc3c2)n1)c1c[nH]c(C(F)(F)F)n1` (stereo not drawn) [US20250352549, Example 43], the IC50 entry is “in the range around 750 nM”. The compound `Cc1nn(C)c2cc(-c3nc(N)nc(NC(c4c[nH]c(C(F)(F)F)n4)C(C)C)n3)ccc12` (stereo not drawn) [US20250352549, Example 44] gave an IC50 of under 500 nM.

`CC(C)C(Nc1nc(N)nc(-c2ccc3c(F)nn(C)c3c2)n1)c1c[nH]c(C(F)(F)F)n1` (stereo not drawn) [US20250352549, Example 45] yielded an IC50 of under 500 nM. To `Cn1ncc2cc(-c3nc(N)nc(NC(C)(C)c4c[nH]c(C(F)(F)F)n4)n3)ccc21` [US20250352549, Example 46] belongs under 500 nM. In the case of `Cn1ncc2cc(-c3nc(N)nc(NC(C)(C)c4ccn(C(F)F)n4)n3)ccc21` [US20250352549, Example 48], the IC50 is under 500 nM. In the case of `CNc1nc(NC(C)(C)c2ccn(C(F)F)n2)nc(-c2ccc3cnc(C)n3c2)n1` [US20250352549, Example 135], the half-inhibitory concentration (IC50) is under 500 nM. The compound `CNc1nc(NC(Cc2cccc(Cl)c2Cl)C(=O)O)nc(-c2ccc3cnc(C)n3c2)n1` (stereo not drawn) [US20250352549, Example 138] returned an IC50 of under 500 nM. The compound `Cc1ncc2ccc(-c3nc(N)nc(NC(C)c4ccc(F)cn4)n3)cn12` (stereo not drawn) [US20250352549, Example 139] returned an IC50 of under 500 nM. On to `CCC(Nc1nc(N)nc(-c2ccc3cnc(C)n3c2)n1)c1ccc(F)cn1` (stereo not drawn) [US20250352549, Example 140], for which the IC50 is under 500 nM. In turn, `Cc1ncc2ccc(-c3cc(NC(Cc4cccc(F)c4F)C(=O)O)nc(N)n3)cn12` (stereo not drawn) [US20250352549, Example 144] registered an IC50 of under 500 nM.

On to `CNc1nc(NC(Cc2cccc(Cl)c2Cl)C(=O)O)cc(-c2ccc3cnc(C)n3c2)n1` (stereo not drawn) [US20250352549, Example 145], for which the IC50 was under 500 nM.

In turn, `Cc1nc(F)c2ccc(-c3nc(N)nc(NC(c4c[nH]c(C(F)(F)F)n4)C(C)C)n3)cn12` (stereo not drawn) [US20250352549, Example 147] registered an IC50 of under 500 nM.
